According to ChEMBL document CHEMBL1201862, “PubChem BioAssay data set” (2004):
Values joined by “and” are separate entries in the source; they are usually repeats but may differ in a detail not shown here. Identical values can stand only once.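 Following 48 hours of exposure in 96-well plates, responses at five concentrations were used to interpolate endpoints linearly. GI50 is the concentration that inhibits growth by half.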 Active and inactive are the calls of the source. Cut-off read from the data, not from the text of the source: active = GI50 up to about 1.1 µM and inactive = higher.

Tests used:
Assay in all cases: inhibition of tumour cell growth, NCI panel, 48 h
XF498 = test system: XF498
DU-145 = test system: DU-145
MDA-N = test system: MDA-N
BT-549 = test system: BT-549
Hs-578T = test system: Hs-578T
HOP-18 = test system: HOP-18
DMS-273 = test system: DMS-273

SMILES	GI50 (DU-145)	GI50 (MDA-N)	GI50 (BT-549)	GI50 (HOP-18)	other results
CCCCCCCCCCSCC(CO)NC(=O)/C=C/c1c(C)[nH]c(=O)[nH]c1=O (stereo unspecified)	–	–	–	–	GI50 (XF498): 519 nM (active) and 687 nM (active)
COc1cccc(N2C(=O)CSC2c2c[nH]c3ccccc23)c1 (stereo unspecified)	> 100 µM (inactive)	> 100 µM (inactive)	> 100 µM (inactive)	–	–
CCOC1=NC(C(F)(F)F)(C(F)(F)F)N=C(N2CCOCC2)O1	> 100 µM (inactive)	> 100 µM (inactive)	> 100 µM (inactive)	–	GI50 (Hs-578T): > 100 µM (inactive)
CCOC(=O)c1ncoc1[C@H]1COC(C)(C)O1	–	–	–	> 100 µM (inactive)	GI50 (DMS-273): > 100 µM (inactive)
Cc1ccc(NC(=O)CC/C(CC(=O)C(C)(C)C)=N/NC(=O)c2cc3ccccc3cc2O)cc1C	–	–	–	32.1 µM (inactive)	–
